Drawing on patent publication US4473578A, “β-Lactam antibiotics and their use” (Beecham Group Limited, priority 1979, dated 1984), this text covers MIC for one compound.

What all share (test): Antibacterial effectiveness in agar
Common to all, as to type: cell-based

Assay [1] deals with Escherichia coli 5. Conditions: in agar; Escherichia coli 5; read-out: M.I.C. From the text:
(§1) b. Antibacterial effectiveness of the compound of […]

Assay [2] deals with Escherichia coli E96R+.
From the text: as §1

The test system of assay [3] is Escherichia coli JT20R+.
From the text: as §1

The subject of assay [4] is Escherichia coli JT414C+. Conditions: in agar; Escherichia coli JT414C+; read-out: M.I.C.
From the text: as §1

The test system of assay [5] is Escherichia coli NCTC 15418. The note with it: NCTC15418; in agar; Escherichia coli NCTC 15418; read-out: M.I.C.
From the text: as §1

Assay [6] deals with Klebsiella aerogenes R112. The note with it: in agar; Klebsiella aerogenes R112; read-out: M.I.C.
From the text: as §1

Assay [7] relates to Proteus morganii T361. Conditions: Morganella morganii; in agar; Proteus morganii T361; read-out: M.I.C.
From the text: as §1

Assay [8] concerns Proteus rettgeri R110. Conditions: Providencia rettgeri; in agar; Proteus rettgeri R110; read-out: M.I.C.
From the text: as §1

Assay [9] has as its system Serratia marcescens SM27. Conditions: in agar; Serratia marcescens SM27; read-out: M.I.C.
From the text: as §1

Assay [10] relates to Staphylococcus aureus T150+. Conditions: in agar; Staphylococcus aureus T150+; read-out: M.I.C.
From the text: as §1

Assay [11] has as its system Staphylococcus aureus T67+. Conditions: in agar; Staphylococcus aureus T67+; read-out: M.I.C.
From the text: as §1

The subject of assay [12] is Streptococcus faecalis C90. The note with it: Enterococcus faecalis; in agar; Streptococcus faecalis C90; read-out: M.I.C.
From the text: as §1

In brackets after ≈: the same amount, converted by molar mass.

As to `CC(=O)N/C=C/SC1=C(C(=O)O)N2C(=O)[C@@H]([C@H](C)OS(=O)(=O)O)[C@H]2C1` [MM 13902, reference compound], the MIC in assay [1] is at most 0.1 µg/mL; in [2], 0.2 µg/mL (≈ 0.51 µM); in assay [3], 1.6 µg/mL (≈ 4.08 µM); in assay [4], 0.4 µg/mL (≈ 1.02 µM); in [5], at most 0.1 µg/mL; in assay [6], 0.2 µg/mL (≈ 0.51 µM). The MIC in [7] amounted to 0.2 µg/mL (≈ 0.51 µM); in [8], 0.2 µg/mL (≈ 0.51 µM); in assay [9], 1.6 µg/mL (≈ 4.08 µM); in assay [10] it was 1.6 µg/mL (≈ 4.08 µM); in assay [11], 0.8 µg/mL (≈ 2.04 µM); in assay [12], 6.2 µg/mL (≈ 15.8 µM).
